This is an account of results in article PMC5777239 (Science signaling, 2017).

Assay [1] has as its system RXRA (Gal4-RXRA reporter). Put plainly: Gal4-RXRA UAS-GFP Kit+ reporter cells treated with plasma from treated mice. It is filed as in vivo, mouse. The conditions noted are these: Kit+ cells transduced with Gal4-RXRA, plasma from mice exposed to the agent.
Assay [2] deals with T1, RXRA (Homo sapiens, UniProt P19793).
T1 sequence (P19793 1-462): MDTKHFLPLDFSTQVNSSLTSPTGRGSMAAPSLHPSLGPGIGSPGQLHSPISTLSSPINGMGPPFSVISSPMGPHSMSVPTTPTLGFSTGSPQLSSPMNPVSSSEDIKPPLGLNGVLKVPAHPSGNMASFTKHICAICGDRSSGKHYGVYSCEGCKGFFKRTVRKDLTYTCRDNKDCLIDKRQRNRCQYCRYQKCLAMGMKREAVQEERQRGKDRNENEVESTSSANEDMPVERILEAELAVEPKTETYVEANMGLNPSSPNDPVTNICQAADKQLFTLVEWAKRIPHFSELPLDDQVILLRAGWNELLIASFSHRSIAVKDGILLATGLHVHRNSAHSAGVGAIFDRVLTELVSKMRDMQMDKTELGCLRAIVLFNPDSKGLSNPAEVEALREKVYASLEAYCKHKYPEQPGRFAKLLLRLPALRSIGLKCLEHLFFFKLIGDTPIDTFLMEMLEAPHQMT
The conditions noted are these: cited from earlier work.

The target of the next assay is T2, Flag-Gal4 DBD-RXRA LBD (Homo sapiens, UniProt P19793).
T2 sequence (P19793 227-458 limits assumed): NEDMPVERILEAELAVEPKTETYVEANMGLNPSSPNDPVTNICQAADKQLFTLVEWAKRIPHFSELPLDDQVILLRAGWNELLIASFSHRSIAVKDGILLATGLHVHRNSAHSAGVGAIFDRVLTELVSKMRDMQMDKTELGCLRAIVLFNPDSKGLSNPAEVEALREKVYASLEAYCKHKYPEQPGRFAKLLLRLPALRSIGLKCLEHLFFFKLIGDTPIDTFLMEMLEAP
Type of assay: binding. The settings on record: 293T-FXP cells treated with serum up to 24 hours.

In assay [3] the target is T3, RXRA (Gal4-DBD fused to RXRA-LBD) (Homo sapiens, UniProt P19793).
T3 sequence (P19793 227-458 limits assumed): T2 sequence (P19793 227-458 limits assumed)
It is filed as cell-based, mouse. The settings on record: primary UAS-GFP Kit+ cells transduced with Gal4-RXRA; synthesized fatty acids.

For assay [4], the target named is T4, RXR alpha LBD-GST (Homo sapiens, UniProt P19793).
T4 sequence (P19793 227-458 limits assumed): T2 sequence (P19793 227-458 limits assumed)
Put plainly: LanthaScreen TR-FRET Retinoic X Receptor alpha Coactivator assay. It is filed as biochemical. On the technique in general: Time-resolved FRET reads energy transfer from a long-lived donor to a nearby acceptor.

The target of assay [5] is T1, RXRA. Put plainly: DR1x3-TK-Luc luciferase reporter in 293T cells with full-length RXRA. Type of assay: cell-based. The settings on record: 40 hour incubation.
Assay [6] has as its system mouse hematopoietic cells. It is filed as in vivo. The settings on record: after PHZ treatment, mass spectrometry.
For assay [7], the system named is RXRA (Gal4-RXRA reporter). Type of assay: in vivo, mouse. The conditions noted are these: for proportion of GFP+mCherry+ cells in total bone marrow cells / single cell abundance of GFP, mean fluorescence intensity (MFI): Gal4-RXRA transplanted mice; for proportion of GFP+mCherry+ cells in total bone marrow cells: compared to mice without treatment; for single cell abundance of GFP, mean fluorescence intensity (MFI): whole bone marrow cells.

Assay [8] deals with RXR alpha LBD-GST. Put plainly: FRET or BRET. (Bioluminescence resonance energy transfer reports proximity on the nanometre scale.)

In the case of `O=c1[nH]cc(F)c(=O)[nH]1` [5-FU, 5-fluoruracil], in assay [1], the “UAS-GFP reporter output with plasma from treated mice” value (“UAS-GFP reporter output with plasma” for short) was “did not observe an increase”.

Regarding `CCCCC/C=C\C/C=C\C/C=C\C/C=C\CCCC(=O)O` [AA, arachidonic acid], at RXRA [2], the “activation of RXRA in vitro (luciferase reporter)” value (“activation of RXRA in vitro” below) is recorded as “activate RXRA in vitro”.

Turning to `CC/C=C\C/C=C\C/C=C\C/C=C\C/C=C\CCCCCCCC(=O)O` [C24:4, (9Z, 12Z, 15Z, 18Z, 21Z)-tetracosa-9,12,15,18,21-tetraenoic acid], the “binding to Flag-Gal4-RXRA in pull-down (MS)” value (shortened to “binding to Flag-Gal4-RXRA”) at Flag-Gal4 DBD-RXRA LBD is “bound to RXRA in a time-dependent manner”. The “activation of the GFP reporter” value in assay [3] is on record as “did not activate the GFP reporter”. Besides, at RXR alpha LBD-GST [4], the “binding of PGC1 and D22 co-activator peptides (TR-FRET)” value was “did not lead to binding of either PGC1 or D22”.

With `CC/C=C\C/C=C\C/C=C\C/C=C\C/C=C\CCCCCCCC(=O)O` [C24:5, (9Z, 12Z, 15Z, 18Z, 21Z)-tetracosa-9,12,15,18,21-pentaenoic acid], the “binding to Flag-Gal4-RXRA” value at Flag-Gal4 DBD-RXRA LBD is reported as “bound to RXRA in a time-dependent manner”. Also, the “activation of DR1-luciferase reporter” value on RXRA [5] is “could activate a DR1-luciferase reporter”. Besides, on RXR alpha LBD-GST [4], the “binding of PGC1 and D22 co-activator peptides (TR-FRET)” value is “induced dose-dependent binding of both PGC1 and D22 peptides”.

`CC/C=C\C/C=C\C/C=C\C/C=C\C/C=C\C/C=C\CCC(=O)O` [DHA, docosahexaenoic acid]: the “binding to Flag-Gal4-RXRA” value at Flag-Gal4 DBD-RXRA LBD is “bound to RXRA in a time-dependent manner”. For the same molecule, the “activation of RXRA in vitro” value at RXRA [2] was “activate RXRA in vitro”.

In the case of `CC/C=C\C/C=C\C/C=C\C/C=C\C/C=C\CCCCCC(=O)O` [DPA, docosapentaenoic acid], the “activation of RXRA in vitro” value on RXRA [2] is given as “activate RXRA in vitro”.

Take `NNc1ccccc1` [PHZ, phenylhydrazine]: in [6], the “concentrations of fatty acids C24:4 and C24:5 in bone marrow cells” value was “increased two-fold”; the “concentrations of fatty acids C24:4 and C24:5 in peripheral blood cells” value was “increased three-fold”. For the same molecule, in [7], the “proportion of GFP+mCherry+ cells in total bone marrow cells” value is recorded as “increase” and the “single cell abundance of GFP, mean fluorescence intensity (MFI)” value was “increased”. Further, the “WBC peak following treatment” value in assay [7] (granulopoiesis following PHZ treatment) was 18-22,000 /μl. For the same molecule, the “UAS-GFP reporter output with plasma” value in assay [1] is “increased”.

In the case of Fluorescein-PGC1α peptide, in the assay with RXR alpha LBD-GST [8], the EC50 of the ligand C24:5 for induced binding of the peptide stood at 94 nM and the EC50 of the ligand DHA for induced binding of the peptide turned out to be 86 nM.

B1: granulocyte colony stimulating factor (protein, UniProt P09919 31-207, looked up)
Granulocyte …: TPLGPASSLPQSFLLKCLEQVRKIQGDGAALQEKLVSECATYKLCHPEELVLLGHSLGIPWAPLSSCPSQALQLAGCLSQLHSGLFLYQGLLQALEGISPELGPTLDTLQLDVADFATTIWQQMEELGMAPALQPTQGAMPAFASAFQRRAGGVLVASHLQSFLEVSYRVLRHLAQP
For B1, in assay [7], the “proportion of GFP+mCherry+ cells in total bone marrow cells” value was “increase” and the “single cell abundance of GFP, mean fluorescence intensity (MFI)” value was “increased”. For the same molecule, the “UAS-GFP reporter output with plasma” value in assay [1] is “increased”.
